Data published in PMC8568133, “Evaluation of bisphenylthiazoles as a promising class for combating multidrug-resistant fungal infections” (PLoS ONE, 2021).
Converted amounts (≈) assume the structure as drawn. Read-outs that look alike come from different tables or passages of the source.

Tests used:
Assay type in all cases: cell-based
[1] = system: Lactobacillus casei ATCC-334; assay: Broth microdilution MIC against normal human microbiota; settings: Lacticaseibacillus casei, ATCC334; Lactobacillus casei ATCC-334; read-out: MIC
Protocol: (§1) Broth microdilution was utilized to determine the activity of bisphenylthiazoles against the human gut microflora as described elsewhere. A bacterial solution equivalent to 0.5 McFarland standards was prepared and diluted in MRS broth to achieve a bacterial concentration of approximately 5 x 10^5 CFU/mL. Then, compounds/control antifungals (in triplicates), were added to the plates and serially diluted with media containing bacteria. The plates were incubated for 48 hours at 37 °C before recording the MIC values. The experiment was repeated three independent times.

[2] = system: Lactobacillus crispatus HM-370; assay: as above; settings: HM370; Lactobacillus crispatus HM-370; read-out: MIC
Protocol: as §1

[3] = system: Lactobacillus gasseri HM-400; assay: as above; settings: HM400; Lactobacillus gasseri HM-400; read-out: MIC
Protocol: as §1

Candida parapsilosis = assay: Antifungal broth microdilution MIC (50% growth inhibition); settings: Lodderomyces parapsilosis, read-out: MIC
Protocol: (§2) Serial dilutions (from 128 μg/mL to 0.06 μg/mL) of the tested compounds and control drugs (fluconazole, itraconazole and amphotericin) (in triplicates), were screened against clinical isolates of Candida albicans, Candida auris, Candida glabrata, Candida parapsilosis, Candida tropicalis, Candida krusei, Cryptococcus neoformans, Cryptococcus gattii and Aspergillus fumigatus species using the broth microdilution method according to the Clinical and Laboratory Standards Institute guidelines. MICs were determined as the lowest concentration of the compounds that inhibited the fungal growth by 50% after incubation at 35 °C for 24 h (for Candida and Aspergillus), or 48 h (for Cryptococcus). The minimum fungicidal concentration (MFC) of these compounds was tested by plating 4 μL from wells with no growth onto YPD agar plates. The plates were incubated at 37 °C for 24 hours before recording the MFC, which was categorized as the lowest concentration that reduced fungal growth by 99.9% [45]. The experiment was repeated three independent times.

Candida tropicalis = assay: Antifungal broth microdilution MIC (50% growth inhibition) and MFC; settings: Candida tropicalis, ATCC1369, C. tropicalis ATCC 1369
Protocol: as §2

Candida krusei = assay: as above; settings: Pichia kudriavzevii; for MIC: read-out: MIC
Protocol: as §2

Candida auris [4] = assay: as above; settings: for MIC: read-out: MIC
Protocol: as §2

Candida albicans = assay: as above; settings: Candida albicans; for MIC: read-out: MIC
Protocol: as §2

Candida auris [5] = assay: Checkerboard assay of compound 17 with standard antifungals; settings: for Interpretation of interaction: antifungal combined with compound 17; for MIC Combined, Antifungal: antifungal in combination with compound 17; for MIC: Candidozyma auris, checkerboard, agent alone
Protocol: To evaluate the interactions between bisphenylthiazoles and the standard antifungal agents (fluconazole, amphotericin B, 5-fluorocytosine and caspofungin) against 2 C. auris clinical isolates, a standard checkerboard assay was utilized as described in previous studies. The fractional inhibitory concentration index (FICI) was calculated for each interaction. Interactions where the FICI was ≤0.5 were categorized as synergistic (SYN). FICI values of >0.5–1.25 were categorized as additive (ADD). FICI values of >1.25–4 were categorized as indifferent, and FICI values of > 4 were categorized as antagonistic. The experiment was repeated three independent times.

Cryptococcus gattii = assay: Antifungal broth microdilution MIC (50% growth inhibition, 48 h); settings: Cryptococcus gattii, read-out: MIC
Protocol: as §2

Cryptococcus neoformans = assay: as above; settings: Cryptococcus neoformans, read-out: MIC
Protocol: as §2

Candida strains = assay: Minimum fungicidal concentration, summary over Candida strains; settings: strains of Table 6
Protocol: as §2

[6] = ATCC10231, C. albicans ATCC 10231
[7] = Candida auris 381 (azole-sensitive)
[8] = Candida auris 385 (azole-resistant)

SMILES: C[C@@H]1[C@H](O)[C@@H](C)/C=C/C=C/C=C/C=C/C=C/C=C/C=C/[C@H](O[C@@H]2O[C@H](C)[C@@H](O)[C@H](N)[C@@H]2O)C[C@@H]2O[C@](O)(C[C@@H](O)C[C@@H](O)[C@H](O)CC[C@@H](O)C[C@@H](O)CC(=O)O[C@H]1C)C[C@H](O)[C@H]2C(=O)O [Amphotericin B, reference compound]
- MIC [1]: > 128 µg/mL
- MIC [2]: > 128 µg/mL
- MIC [3]: > 128 µg/mL
- MIC (Candida parapsilosis; ATCC22019, C. parapsilosis ATCC 22019): 0.5 µg/mL (≈ 0.541 µM)
- MIC (Candida parapsilosis; C. parapsilosis CAB 502638): 0.5 µg/mL (≈ 0.541 µM)
- MFC (Candida tropicalis): 2 µg/mL (≈ 2.16 µM)
- MIC (Candida tropicalis; read-out: MIC): 1 µg/mL (≈ 1.08 µM)
- MIC (Candida krusei; ATCC34135, C. krusei ATCC 34135): 2 µg/mL (≈ 2.16 µM)
- MFC (Candida krusei; C. krusei CAB 396420): 2 µg/mL (≈ 2.16 µM)
- MIC (Candida krusei; C. krusei CAB 396420): 2 µg/mL (≈ 2.16 µM)
- MFC (Candida auris [4]; Candida auris 390): 2 µg/mL (≈ 2.16 µM)
- MIC (Candida auris [4]; Candidozyma auris, C. auris 381): 1 µg/mL (≈ 1.08 µM)
- MIC (Candida auris [4]; Candidozyma auris, C. auris 382): 1 µg/mL (≈ 1.08 µM)
- MIC (Candida auris [4]; Candidozyma auris, C. auris 383): 1 µg/mL (≈ 1.08 µM)
- MIC (Candida auris [4]; Candidozyma auris, C. auris 384): 1 µg/mL (≈ 1.08 µM)
- MIC (Candida auris [4]; Candidozyma auris, C. auris 385): 1 µg/mL (≈ 1.08 µM)
- MIC (Candida auris [4]; Candidozyma auris, C. auris 386): 2 µg/mL (≈ 2.16 µM)
- MIC (Candida auris [4]; Candidozyma auris, C. auris 387): 1 µg/mL (≈ 1.08 µM)
- MIC (Candida auris [4]; Candidozyma auris, C. auris 388): 2 µg/mL (≈ 2.16 µM)
- MIC (Candida auris [4]; Candidozyma auris, C. auris 389): 2 µg/mL (≈ 2.16 µM)
- MIC (Candida auris [4]; Candidozyma auris, C. auris 390): 2 µg/mL (≈ 2.16 µM)
- MFC (Candida auris [4]; Candidozyma auris, Candida auris 389, read-out: MFC): 2 µg/mL (≈ 2.16 µM)
- MFC (Candida albicans; [6]): 1 µg/mL (≈ 1.08 µM)
- MIC (Candida albicans; [6]): 1 µg/mL (≈ 1.08 µM)
- MIC (Candida albicans; C. albicans NR-29448 (fluconazole-resistant)): 1 µg/mL (≈ 1.08 µM)
- MIC (Candida albicans; C. albicans SS5314 (wild-type)): 1 µg/mL (≈ 1.08 µM)
- MFC (Candida albicans; C. albicans NR-29448): 2 µg/mL (≈ 2.16 µM)
- Interpretation of interaction (Candida auris [5]; [7]): ADD (FICI values of >0.5–1.25 were categorized as additive (ADD))
- MIC Combined, Antifungal (Candida auris [5]; [7]): 1 µg/mL
- Interpretation of interaction (Candida auris [5]; [8]): ADD (FICI values of >0.5–1.25 were categorized as additive (ADD))
- MIC Combined, Antifungal (Candida auris [5]; [8]): 1 µg/mL
- MIC (Candida auris [5]; [7]): 1 µg/mL
- MIC (Candida auris [5]; [8]): 1 µg/mL
- MIC (Cryptococcus gattii; C. gattii NR 43209): 1 µg/mL (≈ 1.08 µM)
- MIC (Cryptococcus gattii; C. gattii NR 43210): 0.5 µg/mL (≈ 0.541 µM)
- MIC (Cryptococcus neoformans; C. neoformans NR 41298): 1 µg/mL (≈ 1.08 µM)
- MIC (Cryptococcus neoformans; C. neoformans NR 41300): 1 µg/mL (≈ 1.08 µM)
- MIC (Cryptococcus neoformans; C. neoformans NR 48770): 0.5 µg/mL (≈ 0.541 µM)
- fungistatic or fungicidal activity (Candida strains): fungicidal
